Measurements reported in patent US20260199323A1, “LIGAND COMPOUNDS FOR E3 UBIQUITIN LIGASE, PROTEIN DEGRADERS DEVELOPED ON BASIS OF LIGAND COMPOUNDS, AND USES THEREOF” (GLUETACS THERAPEUTICS (SHANGHAI) CO., LTD., priority 2021, published 2026).

Columns and labels:
Ramos = assay: CCK-8 tumor cell proliferation, Ramos; conditions: Homo sapiens, Table 9, designed based on SHP2 inhibitors, 72 h, read-out: IC50 for inhibiting the proliferation of tumor cells, Ramos
Description: (§1) The tumor cells used herein were cultured in a cell culture medium listed in table 4 at 37° C. in an incubator with 5% CO2. Prior to experimentation, all cells used were correctly identified by STR profiling, and tested negative for mycoplasma through routine screenings.
(§2) IC50 values of the compounds of the present disclosure (including the compounds in Tables 1 and 3, and compounds of examples) were measured using the Meilun Cell Counting Kit-8 kit from Dalian Meilun Biotech Co., Ltd. Assay details are as follows: tumor cells were seeded in a 96-well plate at a density listed in Table 5. After 24 h, 100 μL of the inoculated cells were treated with 0.5 μL of the compounds of the present disclosure (including the compounds in Tables 1 and 3, and compounds of examples) at 10 different successively decreasing concentrations (starting at the highest concentration of 10 μM; 5-fold serial dilutions). After the cells were treated with the compounds of the present disclosure for a period of time, the cell viability detection reagent was added to the culture medium for cell viability assessment according to the instructions provided with the CCK-8 kit. […] The growth inhibition of the compounds of the present disclosure on cells was plotted by Prism Graphpad software, and the IC50 values of the compounds of the present disclosure were calculated therefrom.

Kasumi-1 = assay: CCK-8 tumor cell proliferation, Kasumi-1; type: cell-based, Human; conditions: 72 h
Outline: (§3)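 Using the CCK-8 kit, viability of plated cells is assessed after exposure to compound across ten concentrations (5-fold serial dilution, top 10 μM) added at 24 h. IC50 is obtained by curve fitting of growth inhibition.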

K562 = assay: CCK-8 tumor cell proliferation, K562; set-up: species or system Human; conditions: Table 13, designed based on BCR-ABL inhibitors; 72 h
Description: as §1, §2

Mino = assay: CCK-8 tumor cell proliferation, Mino; type: cell-based, Human; conditions: Table 13, designed based on BCR-ABL inhibitors; 72 h
Outline: as §3

HGC-27 = assay: CCK-8 tumor cell proliferation, HGC-27; type: cell-based, Human; conditions: Table 14, designed based on CDK4/6 inhibitors; 96 h
Description: as §1, §2

SU-DHL-6 = assay: CCK-8 tumor cell proliferation, SU-DHL-6; type: cell-based, Human; conditions: Table 14, designed based on CDK4/6 inhibitors; 72 h
Description: as §1, §2

SK-OV-3 = assay: CCK-8 tumor cell proliferation, SK-OV-3; conditions: Table 14, designed based on CDK4/6 inhibitors
Description: as §2

CCRF-CEM = assay: CCK-8 tumor cell proliferation, CCRF-CEM; type: cell-based, Human; set-up: IC50 for inhibiting the proliferation of tumor cells, CCRF-CEM: scale not given here; conditions: 96 h
Outline: as §3

SR = assay: CCK-8 tumor cell proliferation, SR; type: cell-based, Human; conditions: Table 14, designed based on CDK4/6 inhibitors; 72 h
Outline: as §3

Daudi = assay: CCK-8 tumor cell proliferation, Daudi; set-up: species or system Human; conditions: Table 13, designed based on BCR-ABL inhibitors; 96 h
Description: as §1, §2

MM.1S = assay: CCK-8 tumor cell proliferation, MM.1S; type: cell-based; conditions: Table 6, designed based on STAT3 inhibitors; 72 h
Outline: as §3

T47D = assay: CCK-8 tumor cell proliferation, T47D; type: cell-based, Human; conditions: Table 6, designed based on STAT3 inhibitors; 96 h
Description: as §1, §2

SNU-182 = assay: CCK-8 tumor cell proliferation, SNU-182; set-up: species or system Human; conditions: Table 6, designed based on STAT3 inhibitors; 96 h
Description: as §1, §2

CAL-62 = assay: CCK-8 tumor cell proliferation, CAL-62; type: cell-based, Human; set-up: IC50 for inhibiting the proliferation of tumor cells, CAL-62: scale not given here; conditions: Table 13, designed based on BCR-ABL inhibitors; 72 h
Outline: as §3

[1] = Table 13, designed based on BCR-ABL inhibitors
[2] = Table 6, designed based on STAT3 inhibitors

SMILES: C[C@@H]1OCC2(CCN(c3cnc(Sc4ccnc(N)c4Cl)c(N)n3)CC2)[C@@H]1N [GT-03335]
- IC50 (Ramos): > 10 µM

SMILES: Cc1nc(Nc2ncc(C(=O)Nc3c(C)cccc3Cl)s2)cc(N2CCN(Cc3ccc4c(c3)CN(C3CCC(=O)NC3=O)C4=O)CC2)n1 (stereo not drawn) [GT-03215, N-(2-chloro-6-methylphenyl)-2-((6-(4-((2-(2,6-dioxopiperidin-3-yl)-1-oxoisoindolin-5-yl)methyl)piperazin-1-yl)-2-methylpyrimidin-4-yl)amino)thiazole-5-carboxamide]
- IC50 for inhibiting the proliferation of tumor cells, Kasumi-1 (Kasumi-1; [1]): A+
- IC50 for inhibiting the proliferation of tumor cells, K562 (K562): A+
- IC50 for inhibiting the proliferation of tumor cells, Mino (Mino): A+

SMILES: Cc1nc2c(F)cc(-c3nc(Nc4ccc(N5CCC(N6CCN(Cc7cccc8c7CN(C7CCC(=O)NC7=O)C8=O)CC6)CC5)cn4)ncc3F)cc2n1C(C)C (stereo not drawn) [GT-03903, 3-(4-((4-(1-(6-((5-fluoro-4-(4-fluoro-1-isopropyl-2-methyl-1H-benzo[d]imidazol-6-yl)pyrimidin-2-yl)amino)pyridin-3-yl)piperidin-4-yl)piperazin-1-yl)methyl)-1-oxoisoindolin-2-yl)piperidine-2,6-dione]
- IC50 for inhibiting the proliferation of tumor cells, HGC-27 (HGC-27): A+
- IC50 for inhibiting the proliferation of tumor cells, SU-DHL-6 (SU-DHL-6): A+
- IC50 for inhibiting the proliferation of tumor cells, SK-OV-3 (SK-OV-3): A+
- IC50 for inhibiting the proliferation of tumor cells, CCRF-CEM (CCRF-CEM; Table 14, designed based on CDK4/6 inhibitors): A+
- IC50 for inhibiting the proliferation of tumor cells, SR (SR): A+

SMILES: Cc1ccc(NC(=O)c2ccc(CN3CCN(Cc4ccc5c(c4)CN(C4CCC(=O)NC4=O)C5=O)CC3)cc2)cc1Nc1nccc(-c2cccnc2)n1 (stereo not drawn) [GT-02969, 4-((4-((2-(2,6-dioxopiperidin-3-yl)-1-oxoisoindolin-5-yl)methyl)piperazin-1-yl)methyl)-N-(4-methyl-3-((4-(pyridin-3-yl)pyrimidin-2-yl)amino)phenyl)benzamide]
- IC50 for inhibiting the proliferation of tumor cells, Daudi (Daudi): A+

SMILES: Cc1nc2c(F)cc(-c3nc(Nc4ccc(N5CCC(N6CCN(Cc7cc8c(cc7F)C(=O)N(C7CCC(=O)NC7=O)C8)CC6)CC5)cn4)ncc3F)cc2n1C(C)C (stereo not drawn) [GT-03901, 3-(6-fluoro-5-((4-(1-(6-((5-fluoro-4-(4-fluoro-1-isopropyl-2-methyl-1H-benzo[d]imidazol-6-yl)pyrimidin-2-yl)amino)pyridin-3-yl)piperidin-4-yl)piperazin-1-yl)methyl)-1-oxoisoindolin-2-yl)piperidine-2,6-dione]
- IC50 for inhibiting the proliferation of tumor cells, HGC-27 (HGC-27): A+
- IC50 for inhibiting the proliferation of tumor cells, SU-DHL-6 (SU-DHL-6): A+
- IC50 for inhibiting the proliferation of tumor cells, SK-OV-3 (SK-OV-3): A+
- IC50 for inhibiting the proliferation of tumor cells, SR (SR): A+

SMILES: CC1(N)CCN(c2cnc3c(-c4cccc(Cl)c4Cl)n[nH]c3n2)CC1 [GT-03336]
- IC50 (Ramos): > 10 µM

SMILES: CC1(N)CCN(c2cnc(-c3cccc(Cl)c3Cl)c(N)n2)CC1 [GT-03334]
- IC50 (Ramos): > 10 µM

SMILES: O=C1CCC(N2Cc3cc(CNC(=O)c4cc5c(o4)C(=O)c4ccccc4C5=O)ccc3C2=O)C(=O)N1 (stereo not drawn) [GT-03383, N-((2-(2,6-dioxopiperidin-3-yl)-1-oxoisoindolin-5-yl)methyl)-4,9-dioxo-4,9-dihydronaphtho[2,3-b]furan-2-carboxamide]
- IC50 for inhibiting the proliferation of tumor cells, MM.1S (MM.1S): A+
- IC50 for inhibiting the proliferation of tumor cells, Kasumi-1 (Kasumi-1; [2]): A+
- IC50 for inhibiting the proliferation of tumor cells, T47D (T47D): A+
- IC50 for inhibiting the proliferation of tumor cells, SNU-182 (SNU-182): A+
- IC50 for inhibiting the proliferation of tumor cells, CCRF-CEM (CCRF-CEM; [2]): A+

SMILES: Cc1ccc(C(=O)Nc2ccc(CN3CCN(Cc4ccc5c(c4)CN(C4CCC(=O)NC4=O)C5=O)CC3)c(C(F)(F)F)c2)cc1C#Cc1cnc2cccnn12 (stereo not drawn) [GT-03804, N-(4-((4-((2-(2,6-dioxopiperidin-3-yl)-1-oxoisoindolin-5-yl)methyl)piperazin-1-yl)methyl)-3-(trifluoromethyl)phenyl)-3-(imidazo[1,2-b]pyridazin-3-ylethynyl)-4-methylbenzamide]
- IC50 for inhibiting the proliferation of tumor cells, CAL-62 (CAL-62): A+
- IC50 for inhibiting the proliferation of tumor cells, Daudi (Daudi): A+
- IC50 for inhibiting the proliferation of tumor cells, Kasumi-1 (Kasumi-1; [1]): A+
- IC50 for inhibiting the proliferation of tumor cells, K562 (K562): A+
- IC50 for inhibiting the proliferation of tumor cells, Mino (Mino): A+
- IC50 for inhibiting the proliferation of tumor cells, CCRF-CEM (CCRF-CEM; [1]): A+

SMILES: Cc1nc2c(F)cc(-c3nc(Nc4ccc(N5CCC(N6CCN(Cc7cc(F)c8c(c7)CN(C7CCC(=O)NC7=O)C8=O)CC6)CC5)cn4)ncc3F)cc2n1C(C)C (stereo not drawn) [GT-03902, 3-(7-fluoro-5-((4-(1-(6-((5-fluoro-4-(4-fluoro-1-isopropyl-2-methyl-1H-benzo[d]imidazol-6-yl)pyrimidin-2-yl)amino)pyridin-3-yl)piperidin-4-yl)piperazin-1-yl)methyl)-1-oxoisoindolin-2-yl)piperidine-2,6-dione]
- IC50 for inhibiting the proliferation of tumor cells, HGC-27 (HGC-27): A+
- IC50 for inhibiting the proliferation of tumor cells, SU-DHL-6 (SU-DHL-6): A+
- IC50 for inhibiting the proliferation of tumor cells, SK-OV-3 (SK-OV-3): A+
- IC50 for inhibiting the proliferation of tumor cells, SR (SR): A+

SMILES: Cc1ccc(NC(=O)c2ccc(CNCc3ccc4c(c3)CN(C3CCC(=O)NC3=O)C4=O)cc2)cc1Nc1nccc(-c2cccnc2)n1 (stereo not drawn) [GT-03377, 4-((((2-(2,6-dioxopiperidin-3-yl)-1-oxoisoindolin-5-yl)methyl)amino)methyl)-N-(4-methyl-3-((4-(pyridin-3-yl)pyrimidin-2-yl)amino)phenyl)benzamide]
- IC50 for inhibiting the proliferation of tumor cells, Daudi (Daudi): A+
- IC50 for inhibiting the proliferation of tumor cells, Kasumi-1 (Kasumi-1; [1]): A+
- IC50 for inhibiting the proliferation of tumor cells, Mino (Mino): A+

SMILES: Cc1nc(Nc2ncc(C(=O)Nc3c(C)cccc3Cl)s2)cc(N2CCC(N(C)Cc3ccc4c(c3)CN(C3CCC(=O)NC3=O)C4=O)CC2)n1 (stereo not drawn) [GT-03545, N-(2-chloro-6-methylphenyl)-2-((6-(4-(((2-(2,6-dioxopiperidin-3-yl)-1-oxoisoindolin-5-yl)methyl)(methyl)amino)piperidin-1-yl)-2-methylpyrimidin-4-yl)amino)thiazole-5-carboxamide]
- IC50 for inhibiting the proliferation of tumor cells, Daudi (Daudi): A+
- IC50 for inhibiting the proliferation of tumor cells, Mino (Mino): A+

SMILES: Cc1nc2c(F)cc(-c3nc(Nc4ccc(N5CCC(N6CCN(Cc7ccc8c(c7F)CN(C7CCC(=O)NC7=O)C8=O)CC6)CC5)cn4)ncc3F)cc2n1C(C)C (stereo not drawn) [GT-03900, 3-(4-fluoro-5-((4-(1-(6-((5-fluoro-4-(4-fluoro-1-isopropyl-2-methyl-1H-benzo[d]imidazol-6-yl)pyrimidin-2-yl)amino)pyridin-3-yl)piperidin-4-yl)piperazin-1-yl)methyl)-1-oxoisoindolin-2-yl)piperidine-2,6-dione]
- IC50 for inhibiting the proliferation of tumor cells, HGC-27 (HGC-27): A+
- IC50 for inhibiting the proliferation of tumor cells, SU-DHL-6 (SU-DHL-6): A+
- IC50 for inhibiting the proliferation of tumor cells, SK-OV-3 (SK-OV-3): A+
- IC50 for inhibiting the proliferation of tumor cells, SR (SR): A+

SMILES: Cc1ccc(C(=O)Nc2ccc(N3CCN(Cc4ccc5c(c4)CN(C4CCC(=O)NC4=O)C5=O)CC3)c(C(F)(F)F)c2)cc1C#Cc1cnc2cccnn12 (stereo not drawn) [GT-03805, N-(4-(4-((2-(2,6-dioxopiperidin-3-yl)-1-oxoisoindolin-5-yl)methyl)piperazin-1-yl)-3-(trifluoromethyl)phenyl)-3-(imidazo[1,2-b]pyridazin-3-ylethynyl)-4-methylbenzamide]
- IC50 for inhibiting the proliferation of tumor cells, K562 (K562): A+
- IC50 for inhibiting the proliferation of tumor cells, CCRF-CEM (CCRF-CEM; [1]): A+
